How the values were obtained:
Type in all cases: biochemical
EGFR WT = target: T1, EGFR WT (Homo sapiens, UniProt P00533); test: Enzymatic assay EGFR WT (method c); conditions: [EGFR WT]=2 nM, [ATP]=1 mM, [Peptide 22]=1 μM
T1 construct: purchased Thermo Fisher, Carlsbad, CA ERBB1 PR7295B
Experimental: (§1) A 2× stock solution of HER2 WT (ERBB2 0108-0000-1; ProQinase, Freiburg, Germany) corresponding to method a, was prepared as described below. Alternatively, a 2× stock solution of HER2YVMA (custom purification; Viva biotech, Shanghai, China) corresponding to method b, was prepared as described below. For method c, a 2× stock of EGFR (ERBB1 PR7295B, Thermo Fisher, Carlsbad, CA) was prepared as described below. All 2× solutions were prepared in buffer containing 50 mM HEPES, pH 7.5, 10 mM MnCl2, MgCl2, 0.005% Tween 20, 1 mM TCEP. 25 ul of 2× enzyme solution was added to a Seahorse low volume 384-well polypropylene assay plate (201288-100, Seahorse Bioscience, Chicopee, MA) containing 1 μl of compound serially diluted in 50% DMSO. To initiate the reaction, 25 μl of solution containing 2× final concentration of ATP and ProfilerPro Peptide 22 (760366, Perkin Elmer Hopkinton, MA) was added to each well. The reactions were separated on an LC3000 (Caliper Life Sciences) or a LabChip EZReader (Perkin Elmer) in kinetic mode.
(§2) At the conclusion of each assay, the data were exported from the instrument as a .rda file (LC3000) and processed in proprietary software, EZReviewer, which determines the percent of substrate converted to product within a given cycle as (P/P+S)*100 by measuring the amplitude of substrate and product peaks. Cycle time varied with amount of compounds tested between 8 and 12 cycles. Initial velocity (0-3600 s) from each reaction was determined from the slope of a plot of percent conversion at each cycle versus time (seconds). Percent inhibition was determined by dividing the slope of each reaction by the uninhibited control using 100*(1-(x/uninhibited control)). IC50 estimates were obtained by plotting the concentration of inhibitor versus percent inhibition in GraphPad Prism (GraphPad Software, San Diego, CA) using log[inhibitor] versus Response (Variable Slope Model); Y=Min+((Max-Min)/(1+((IC50/x)^Hillslope)))
(§3) • a) [HER2 WT]=12.5 nM, [ATP]=25 μM, [Peptide 22]=1 μM (ATP KMapp˜25 μM) • b) [HER2YVMA]=5 nM, [ATP]=25 μM, [Peptide 22]=1 μM (ATP KMapp˜15 μM) • c) [EGFR WT]=2 nM, [ATP]=1 mM, [Peptide 22]=1 μM (ATP KMapp˜25 μM)

HER2YVMA = HER2YVMA (Homo sapiens, UniProt P04626, INS775YVMA); test: Enzymatic assay HER2YVMA (method b); parameters: purchased Viva biotech, Shanghai, China custom purification; conditions: [HER2YVMA]=5 nM, [ATP]=25 μM, [Peptide 22]=1 μM
Experimental: as §1, §2, §3

HER2 WT = target: T2, HER2 WT (Homo sapiens, UniProt P04626); test: Enzymatic assay HER2 WT (method a); conditions: [HER2 WT]=12.5 nM, [ATP]=25 μM, [Peptide 22]=1 μM
T2 construct: purchased ProQinase, Freiburg, Germany ERBB2 0108-0000-1
Experimental: as §1, §2, §3

Chain of HER2YVMA (P04626 with tags, fused parts or gaps INS775YVMA): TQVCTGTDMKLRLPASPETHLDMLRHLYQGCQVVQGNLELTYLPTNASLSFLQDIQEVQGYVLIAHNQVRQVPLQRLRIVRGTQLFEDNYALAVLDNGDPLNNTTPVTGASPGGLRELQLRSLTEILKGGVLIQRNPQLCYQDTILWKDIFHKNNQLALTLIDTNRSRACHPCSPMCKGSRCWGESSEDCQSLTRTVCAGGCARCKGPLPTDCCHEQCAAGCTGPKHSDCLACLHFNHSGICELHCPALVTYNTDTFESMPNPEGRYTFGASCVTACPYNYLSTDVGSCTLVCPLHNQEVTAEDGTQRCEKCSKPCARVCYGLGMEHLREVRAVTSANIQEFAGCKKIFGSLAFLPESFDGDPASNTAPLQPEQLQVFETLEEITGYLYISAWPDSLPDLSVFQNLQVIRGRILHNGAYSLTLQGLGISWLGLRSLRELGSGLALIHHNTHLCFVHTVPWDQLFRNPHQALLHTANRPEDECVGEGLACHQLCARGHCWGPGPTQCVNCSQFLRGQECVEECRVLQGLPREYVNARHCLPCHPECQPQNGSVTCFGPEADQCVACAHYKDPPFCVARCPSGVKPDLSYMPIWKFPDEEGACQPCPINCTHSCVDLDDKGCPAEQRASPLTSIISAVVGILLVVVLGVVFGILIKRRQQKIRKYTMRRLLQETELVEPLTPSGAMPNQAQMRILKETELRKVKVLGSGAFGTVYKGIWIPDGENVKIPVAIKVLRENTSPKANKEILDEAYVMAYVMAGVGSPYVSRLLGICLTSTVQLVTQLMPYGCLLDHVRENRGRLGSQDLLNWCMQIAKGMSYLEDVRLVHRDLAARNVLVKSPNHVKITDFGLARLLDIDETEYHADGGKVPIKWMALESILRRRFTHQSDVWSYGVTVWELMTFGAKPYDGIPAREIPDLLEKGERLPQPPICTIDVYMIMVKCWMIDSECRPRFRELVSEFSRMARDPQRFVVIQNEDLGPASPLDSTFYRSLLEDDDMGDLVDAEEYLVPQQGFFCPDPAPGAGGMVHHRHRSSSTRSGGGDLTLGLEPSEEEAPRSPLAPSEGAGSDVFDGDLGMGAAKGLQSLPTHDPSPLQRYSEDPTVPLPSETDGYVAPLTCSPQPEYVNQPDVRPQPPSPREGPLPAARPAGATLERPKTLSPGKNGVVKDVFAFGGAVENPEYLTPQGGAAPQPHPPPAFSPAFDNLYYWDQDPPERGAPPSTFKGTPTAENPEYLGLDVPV
T1 sequence (P00533 25-1210): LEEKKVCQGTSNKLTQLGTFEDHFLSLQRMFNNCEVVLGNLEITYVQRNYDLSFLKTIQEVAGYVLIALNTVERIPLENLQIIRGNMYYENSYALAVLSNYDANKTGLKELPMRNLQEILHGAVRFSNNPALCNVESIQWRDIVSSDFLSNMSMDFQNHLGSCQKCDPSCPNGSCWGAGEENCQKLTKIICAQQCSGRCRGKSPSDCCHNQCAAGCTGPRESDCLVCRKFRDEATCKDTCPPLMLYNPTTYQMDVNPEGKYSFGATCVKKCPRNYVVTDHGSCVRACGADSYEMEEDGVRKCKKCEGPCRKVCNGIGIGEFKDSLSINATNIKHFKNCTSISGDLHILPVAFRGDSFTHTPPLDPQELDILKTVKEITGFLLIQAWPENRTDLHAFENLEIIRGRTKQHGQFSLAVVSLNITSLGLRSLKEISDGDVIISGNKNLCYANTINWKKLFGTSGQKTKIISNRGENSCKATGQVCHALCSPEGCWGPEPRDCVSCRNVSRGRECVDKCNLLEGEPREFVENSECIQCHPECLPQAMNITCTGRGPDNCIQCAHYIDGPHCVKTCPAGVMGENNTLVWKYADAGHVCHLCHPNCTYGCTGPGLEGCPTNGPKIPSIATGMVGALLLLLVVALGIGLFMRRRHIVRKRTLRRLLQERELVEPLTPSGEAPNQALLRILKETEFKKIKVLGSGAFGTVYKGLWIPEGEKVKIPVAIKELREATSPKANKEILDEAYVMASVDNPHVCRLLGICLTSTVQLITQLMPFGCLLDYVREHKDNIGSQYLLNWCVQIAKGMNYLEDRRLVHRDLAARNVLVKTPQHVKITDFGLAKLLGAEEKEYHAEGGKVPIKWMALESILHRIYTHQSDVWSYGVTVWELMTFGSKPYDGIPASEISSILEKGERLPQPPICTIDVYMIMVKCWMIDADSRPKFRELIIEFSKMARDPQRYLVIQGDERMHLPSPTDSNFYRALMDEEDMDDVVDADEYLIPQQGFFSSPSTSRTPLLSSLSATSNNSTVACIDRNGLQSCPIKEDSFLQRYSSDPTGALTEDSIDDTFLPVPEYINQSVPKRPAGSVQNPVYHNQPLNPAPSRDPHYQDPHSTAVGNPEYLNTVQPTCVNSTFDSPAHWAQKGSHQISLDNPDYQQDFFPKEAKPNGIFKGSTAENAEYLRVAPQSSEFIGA
T2 sequence (P04626 23-1255): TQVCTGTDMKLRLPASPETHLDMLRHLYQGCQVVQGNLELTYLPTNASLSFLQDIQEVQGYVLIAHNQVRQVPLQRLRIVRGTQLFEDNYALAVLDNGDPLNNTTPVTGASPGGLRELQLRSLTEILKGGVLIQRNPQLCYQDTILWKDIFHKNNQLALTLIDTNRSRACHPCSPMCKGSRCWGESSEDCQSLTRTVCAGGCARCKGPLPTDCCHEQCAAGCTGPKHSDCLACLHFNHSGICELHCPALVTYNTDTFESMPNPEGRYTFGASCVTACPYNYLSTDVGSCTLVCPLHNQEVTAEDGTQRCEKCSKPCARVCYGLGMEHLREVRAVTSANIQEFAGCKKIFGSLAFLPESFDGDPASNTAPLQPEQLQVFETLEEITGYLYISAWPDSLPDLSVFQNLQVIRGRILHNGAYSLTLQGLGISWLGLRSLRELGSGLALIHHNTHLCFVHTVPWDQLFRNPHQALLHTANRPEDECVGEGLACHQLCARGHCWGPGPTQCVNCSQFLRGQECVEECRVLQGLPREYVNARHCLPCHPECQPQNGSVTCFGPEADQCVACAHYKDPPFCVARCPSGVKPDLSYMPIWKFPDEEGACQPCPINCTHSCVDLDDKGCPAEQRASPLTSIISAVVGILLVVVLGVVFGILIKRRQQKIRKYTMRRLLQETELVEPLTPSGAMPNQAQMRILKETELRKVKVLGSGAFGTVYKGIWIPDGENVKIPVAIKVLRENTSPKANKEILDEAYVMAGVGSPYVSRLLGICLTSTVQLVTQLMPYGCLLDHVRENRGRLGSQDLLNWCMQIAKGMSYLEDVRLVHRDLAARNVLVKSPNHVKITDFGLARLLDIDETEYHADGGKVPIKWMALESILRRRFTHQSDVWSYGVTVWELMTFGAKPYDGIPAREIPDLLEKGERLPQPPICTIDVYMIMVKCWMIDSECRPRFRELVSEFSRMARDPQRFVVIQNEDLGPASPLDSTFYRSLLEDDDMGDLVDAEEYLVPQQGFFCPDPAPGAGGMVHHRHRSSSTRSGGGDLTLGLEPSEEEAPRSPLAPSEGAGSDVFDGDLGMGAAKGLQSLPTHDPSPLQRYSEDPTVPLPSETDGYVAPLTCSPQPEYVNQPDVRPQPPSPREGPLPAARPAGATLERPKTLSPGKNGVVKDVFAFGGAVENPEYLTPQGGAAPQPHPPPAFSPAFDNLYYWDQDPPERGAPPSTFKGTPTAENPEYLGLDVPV

| IC50 (EGFR WT) | IC50 (HER2YVMA) | IC50 (HER2 WT) | SMILES |
| --- | --- | --- | --- |
| > 10000 nM | 1000 to 10000 nM | 1000 to 10000 nM | Cc1ccc(Oc2ccc(Nc3ncnc4sc5c(c34)CN(C(=O)C=CCN(C)C)C5C)cc2C)cn1 (single isomer, unassigned) [Compound 170] |
| > 10000 nM | 100 to 1000 nM | 100 to 1000 nM | Cc1ccc(Oc2ccc(Nc3ncnc4sc5c(c34)C(C)CN(C(=O)C=CCN3CCOCC3)C5)cc2C)cn1 (single isomer, unassigned) [Compound 176] |
| > 10000 nM | 100 to 1000 nM | 100 to 1000 nM | Cc1ccc(Oc2ccc(Nc3ncnc4sc5c(c34)C(C)CN(C(=O)C=CCN(C)C(C)(C)C)C5)cc2C)cn1 (single isomer, unassigned) [Compound 178] |
| > 10000 nM | < 100 nM | < 100 nM | Cc1ccc(Oc2ccc(Nc3ncnc4sc5c(c34)C(C)CN(C(=O)C=CCN(C)C(C)(C)C)C5)cc2C)cn1 (single isomer, unassigned) [Compound 179] |
| 1000 to 10000 nM | < 100 nM | < 100 nM | C=CC(=O)N1CCc2c(sc3ncnc(Nc4ccc(Oc5cccnc5)c(C)c4)c23)C1 [Compound 11, 1-(4-((3-methyl-4-(pyridin-3-yloxy)phenyl)amino)-5,8-dihydropyrido[4′,3′:4,5]thieno[2,3-d]pyrimidin-7(6H)-yl)prop-2-en-1-one] |
| > 10000 nM | 100 to 1000 nM | < 100 nM | Cc1ccc(Oc2ccc(Nc3ncnc4sc5c(c34)CCN(C(=O)/C=C/CN3CC4CCC(C3)O4)C5)cc2C)cn1 [Compound 13] |

The next lines start with the compound.

| SMILES | IC50 (EGFR WT) | IC50 (HER2YVMA) | IC50 (HER2 WT) |
| --- | --- | --- | --- |
| Cc1ccc(Oc2ccc(Nc3ncnc4sc5c(c34)C[C@@H](C)N(C(=O)/C=C/CN(C)C)[C@H]5C)cc2C)cn1 (racemic) [Compound 149, (E)-1-(6,8-cis-dimethyl-4-((3-methyl-4-((6-methylpyridin-3-yl)oxy)phenyl)amino)-5,8-dihydropyrido[4′,3′:4,5]thieno[2,3-d]pyrimidin-7(6H)-yl)-4-(dimethylamino)but-2-en-1-one] | > 10000 nM | < 100 nM | < 100 nM |
| Cc1ccc(Oc2ccc(Nc3ncnc4sc5c(c34)C[C@@H](C)N(C(=O)/C=C/CN(C)C)[C@@H]5C)cc2C)cn1 (racemic) [Compound 165, (E)-1-(6,8-trans-dimethyl-4-((3-methyl-4-((6-methylpyridin-3-yl)oxy)phenyl)amino)-5,8-dihydropyrido[4′,3′:4,5]thieno[2,3-d]pyrimidin-7(6H)-yl)-4-(dimethylamino)but-2-en-1-one] | > 10000 nM | 100 to 1000 nM | 100 to 1000 nM |
| C=CC(=O)N1Cc2sc3ncnc(Nc4ccc(Oc5ccc(C)nc5)c(C)c4)c3c2C(C)C1 (single isomer, unassigned) [Compound 145] | > 10000 nM | < 100 nM | < 100 nM |
| C=CC(=O)N1Cc2sc3ncnc(Nc4ccc(Oc5ccc(C)nc5)c(C)c4)c3c2C(C)C1 (single isomer, unassigned) [Compound 146] | 1000 to 10000 nM | < 100 nM | < 100 nM |
| Cc1ccc(Oc2ccc(Nc3ncnc4sc5c(c34)C(C)N(C(=O)C=CCN(C)C)C5)cc2C)cn1 (single isomer, unassigned) [Compound 148] | > 10000 nM | 1000 to 10000 nM | 1000 to 10000 nM |
| C=CC(=O)N1CCc2c(sc3ncnc(Nc4ccc(Oc5cccnc5)c(Cl)c4)c23)C1 [Compound 6, 1-(4-((3-chloro-4-(pyridin-3-yloxy)phenyl)amino)-5,8-dihydropyrido[4′,3′:4,5]thieno[2,3-d]pyrimidin-7(6H)-yl)prop-2-en-1-one] | > 10000 nM | < 100 nM | < 100 nM |
| COc1cc(Nc2ncnc3sc4c(c23)CCN(C(=O)/C=C/CN(C)C)C4)ccc1Oc1ccccc1 [Compound 7, (E)-4-(dimethylamino)-1-(4-((3-methoxy-4-phenoxyphenyl)amino)-5,8-dihydropyrido[4′,3′:4,5]thieno[2,3-d]pyrimidin-7(6H)-yl)but-2-en-1-one] | > 10000 nM | < 100 nM | < 100 nM |

Reference: patent US20240391931A1 (Bristol-Myers Squibb Company, priority 2021, published 2024)
